{"source": "paper PMC7180948", "about": "“New Insights into 4-Anilinoquinazolines as Inhibitors of Cardiac Troponin I–Interacting Kinase (TNNi3K)” (Molecules, 2020)", "assay_in_all_cases": "biochemical", "design_in_all_cases": "KINOMEscan competition binding panel (Eurofins DiscoverX), single concentration, % inhibition", "conditions_in_all_cases": "read-out: 7 at 1 µM % inhibition", "key": {"MINK": {"target": "T1, MINK (Homo sapiens, UniProt Q8N4C8)", "T1 construct": "gene MINK1", "procedure,_shortened": "(§1)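 Selectivity profile from a KINOMEscan run against >400 human kinases; test concentration 1 µM.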"}, "FLT3(N841I)": {"target": "FLT3(N841I) (Homo sapiens, UniProt P36888, N841I)", "procedure,_shortened": "as §1"}, "RIOK1": {"target": "RIOK1 (Homo sapiens, UniProt Q9BRS2)", "procedure,_shortened": "as §1"}, "CAMK1B": {"target": "T2, CAMK1B (Homo sapiens, UniProt Q6P2M8)", "T2 construct": "gene PNCK", "procedure,_shortened": "as §1"}, "PRKG2": {"target": "PRKG2 (Homo sapiens, UniProt Q13237)", "sequence (Q13237 whole entry)": "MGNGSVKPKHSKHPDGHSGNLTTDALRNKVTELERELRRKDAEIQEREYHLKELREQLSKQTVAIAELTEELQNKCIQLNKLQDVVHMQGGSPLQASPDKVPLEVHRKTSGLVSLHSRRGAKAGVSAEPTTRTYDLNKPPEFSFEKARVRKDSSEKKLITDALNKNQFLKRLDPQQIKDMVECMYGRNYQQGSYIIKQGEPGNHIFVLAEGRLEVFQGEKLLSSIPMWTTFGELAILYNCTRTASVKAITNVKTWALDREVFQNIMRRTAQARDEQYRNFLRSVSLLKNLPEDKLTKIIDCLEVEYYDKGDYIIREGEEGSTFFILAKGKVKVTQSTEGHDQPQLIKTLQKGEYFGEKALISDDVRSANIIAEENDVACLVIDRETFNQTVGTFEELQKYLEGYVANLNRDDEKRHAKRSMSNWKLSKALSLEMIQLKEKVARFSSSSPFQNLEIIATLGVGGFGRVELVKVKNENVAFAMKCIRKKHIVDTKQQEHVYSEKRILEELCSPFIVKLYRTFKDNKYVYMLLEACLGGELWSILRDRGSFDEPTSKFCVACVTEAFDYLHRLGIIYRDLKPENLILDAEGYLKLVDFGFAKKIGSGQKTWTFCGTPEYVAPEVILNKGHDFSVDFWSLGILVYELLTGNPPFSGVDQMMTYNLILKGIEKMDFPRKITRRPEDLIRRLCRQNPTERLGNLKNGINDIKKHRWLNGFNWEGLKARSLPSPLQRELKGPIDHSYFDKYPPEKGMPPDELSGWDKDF", "procedure,_shortened": "as §1"}, "LATS2": {"target": "LATS2 (Homo sapiens, UniProt Q9NRM7)", "sequence (Q9NRM7 whole entry)": "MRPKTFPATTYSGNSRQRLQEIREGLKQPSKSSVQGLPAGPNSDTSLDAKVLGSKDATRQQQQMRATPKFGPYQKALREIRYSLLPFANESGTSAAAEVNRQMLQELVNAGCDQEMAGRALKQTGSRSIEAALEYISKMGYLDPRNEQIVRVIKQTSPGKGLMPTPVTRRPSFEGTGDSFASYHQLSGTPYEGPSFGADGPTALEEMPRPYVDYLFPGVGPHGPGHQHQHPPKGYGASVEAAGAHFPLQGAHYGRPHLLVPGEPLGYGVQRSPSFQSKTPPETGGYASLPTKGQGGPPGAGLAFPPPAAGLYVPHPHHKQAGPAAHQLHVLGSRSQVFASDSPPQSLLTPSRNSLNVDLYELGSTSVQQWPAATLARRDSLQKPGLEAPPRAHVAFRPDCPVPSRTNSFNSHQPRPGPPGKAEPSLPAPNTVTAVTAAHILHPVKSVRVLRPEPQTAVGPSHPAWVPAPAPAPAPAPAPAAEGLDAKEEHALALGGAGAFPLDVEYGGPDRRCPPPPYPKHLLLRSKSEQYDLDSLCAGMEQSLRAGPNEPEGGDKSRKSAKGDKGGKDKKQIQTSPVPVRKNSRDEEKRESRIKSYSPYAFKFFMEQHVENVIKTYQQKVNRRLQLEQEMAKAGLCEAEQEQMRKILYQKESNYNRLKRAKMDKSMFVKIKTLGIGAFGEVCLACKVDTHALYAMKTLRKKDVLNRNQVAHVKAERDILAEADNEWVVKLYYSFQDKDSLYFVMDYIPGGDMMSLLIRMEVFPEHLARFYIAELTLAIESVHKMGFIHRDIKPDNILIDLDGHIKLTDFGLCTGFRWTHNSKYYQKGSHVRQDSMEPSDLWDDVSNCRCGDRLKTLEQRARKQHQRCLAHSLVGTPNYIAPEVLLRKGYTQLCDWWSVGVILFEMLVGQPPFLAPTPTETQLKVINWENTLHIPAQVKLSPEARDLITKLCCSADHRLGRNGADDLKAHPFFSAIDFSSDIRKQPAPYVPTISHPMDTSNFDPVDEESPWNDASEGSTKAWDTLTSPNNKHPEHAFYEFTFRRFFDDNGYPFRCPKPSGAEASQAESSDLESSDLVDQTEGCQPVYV", "procedure,_shortened": "as §1"}, "MST1": {"target": "T3, MST1 (Homo sapiens, UniProt Q13043)", "T3 construct": "gene STK4", "procedure,_shortened": "as §1"}, "PRKCD": {"target": "PRKCD (Homo sapiens, UniProt Q05655)", "procedure,_shortened": "as §1"}, "PIK3CA(Q546K)": {"target": "PIK3CA(Q546K) (Homo sapiens, UniProt P42336, Q546K)", "procedure,_shortened": "as §1"}, "LZK": {"target": "T4, LZK (Homo sapiens, UniProt O43283)", "T4 construct": "gene MAP3K13", "procedure,_shortened": "as §1"}, "CDK4-cyclinD1": {"target": "T5, CDK4-cyclinD1 (Homo sapiens, UniProt P11802)", "T5 construct": "cyclinD1", "procedure,_shortened": "as §1"}, "[1]": {"target": "T6, ABL1(F317I)-nonphosphorylated (Homo sapiens, UniProt P00519, F317I)", "T6 construct": "nonphosphorylated", "procedure,_shortened": "as §1"}, "VRK2": {"target": "VRK2 (Homo sapiens, UniProt Q86Y07)", "procedure,_shortened": "as §1"}, "ALK(C1156Y)": {"target": "ALK(C1156Y) (Homo sapiens, UniProt Q9UM73, C1156Y)", "procedure,_shortened": "as §1"}, "ABL1-phosphorylated": {"target": "T7, ABL1-phosphorylated (Homo sapiens, UniProt P00519)", "T7 construct": "phosphorylated", "procedure,_shortened": "as §1"}, "BRSK2": {"target": "BRSK2 (Homo sapiens, UniProt Q8IWQ3)", "sequence (Q8IWQ3 whole entry)": "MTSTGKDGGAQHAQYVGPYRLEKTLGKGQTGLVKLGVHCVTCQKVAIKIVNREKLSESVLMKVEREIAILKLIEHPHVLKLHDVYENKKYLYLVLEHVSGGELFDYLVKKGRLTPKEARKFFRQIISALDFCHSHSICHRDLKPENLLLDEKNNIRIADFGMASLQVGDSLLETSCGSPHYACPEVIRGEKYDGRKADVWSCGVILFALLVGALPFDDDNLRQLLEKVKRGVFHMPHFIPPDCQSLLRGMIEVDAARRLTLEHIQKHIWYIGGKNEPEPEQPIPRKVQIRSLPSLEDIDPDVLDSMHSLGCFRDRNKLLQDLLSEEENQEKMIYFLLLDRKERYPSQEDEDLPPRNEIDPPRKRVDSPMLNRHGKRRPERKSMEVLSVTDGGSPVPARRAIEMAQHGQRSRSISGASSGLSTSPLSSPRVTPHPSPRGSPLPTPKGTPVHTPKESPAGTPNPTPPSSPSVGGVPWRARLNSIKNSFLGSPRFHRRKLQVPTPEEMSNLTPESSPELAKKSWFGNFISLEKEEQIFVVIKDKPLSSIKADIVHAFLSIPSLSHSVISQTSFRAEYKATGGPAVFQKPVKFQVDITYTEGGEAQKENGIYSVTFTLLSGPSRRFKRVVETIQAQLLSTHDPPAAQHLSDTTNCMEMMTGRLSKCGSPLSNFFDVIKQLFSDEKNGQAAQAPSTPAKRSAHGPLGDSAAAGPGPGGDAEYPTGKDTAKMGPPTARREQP", "procedure,_shortened": "as §1"}, "CDK11": {"target": "T8, CDK11 (Homo sapiens, UniProt Q9BWU1)", "T8 construct": "gene CDK19", "procedure,_shortened": "as §1"}, "MARK3": {"target": "MARK3 (Homo sapiens, UniProt P27448)", "procedure,_shortened": "as §1"}, "PIKFYVE": {"target": "PIKFYVE (Homo sapiens, UniProt Q9Y2I7)", "sequence (Q9Y2I7 whole entry)": "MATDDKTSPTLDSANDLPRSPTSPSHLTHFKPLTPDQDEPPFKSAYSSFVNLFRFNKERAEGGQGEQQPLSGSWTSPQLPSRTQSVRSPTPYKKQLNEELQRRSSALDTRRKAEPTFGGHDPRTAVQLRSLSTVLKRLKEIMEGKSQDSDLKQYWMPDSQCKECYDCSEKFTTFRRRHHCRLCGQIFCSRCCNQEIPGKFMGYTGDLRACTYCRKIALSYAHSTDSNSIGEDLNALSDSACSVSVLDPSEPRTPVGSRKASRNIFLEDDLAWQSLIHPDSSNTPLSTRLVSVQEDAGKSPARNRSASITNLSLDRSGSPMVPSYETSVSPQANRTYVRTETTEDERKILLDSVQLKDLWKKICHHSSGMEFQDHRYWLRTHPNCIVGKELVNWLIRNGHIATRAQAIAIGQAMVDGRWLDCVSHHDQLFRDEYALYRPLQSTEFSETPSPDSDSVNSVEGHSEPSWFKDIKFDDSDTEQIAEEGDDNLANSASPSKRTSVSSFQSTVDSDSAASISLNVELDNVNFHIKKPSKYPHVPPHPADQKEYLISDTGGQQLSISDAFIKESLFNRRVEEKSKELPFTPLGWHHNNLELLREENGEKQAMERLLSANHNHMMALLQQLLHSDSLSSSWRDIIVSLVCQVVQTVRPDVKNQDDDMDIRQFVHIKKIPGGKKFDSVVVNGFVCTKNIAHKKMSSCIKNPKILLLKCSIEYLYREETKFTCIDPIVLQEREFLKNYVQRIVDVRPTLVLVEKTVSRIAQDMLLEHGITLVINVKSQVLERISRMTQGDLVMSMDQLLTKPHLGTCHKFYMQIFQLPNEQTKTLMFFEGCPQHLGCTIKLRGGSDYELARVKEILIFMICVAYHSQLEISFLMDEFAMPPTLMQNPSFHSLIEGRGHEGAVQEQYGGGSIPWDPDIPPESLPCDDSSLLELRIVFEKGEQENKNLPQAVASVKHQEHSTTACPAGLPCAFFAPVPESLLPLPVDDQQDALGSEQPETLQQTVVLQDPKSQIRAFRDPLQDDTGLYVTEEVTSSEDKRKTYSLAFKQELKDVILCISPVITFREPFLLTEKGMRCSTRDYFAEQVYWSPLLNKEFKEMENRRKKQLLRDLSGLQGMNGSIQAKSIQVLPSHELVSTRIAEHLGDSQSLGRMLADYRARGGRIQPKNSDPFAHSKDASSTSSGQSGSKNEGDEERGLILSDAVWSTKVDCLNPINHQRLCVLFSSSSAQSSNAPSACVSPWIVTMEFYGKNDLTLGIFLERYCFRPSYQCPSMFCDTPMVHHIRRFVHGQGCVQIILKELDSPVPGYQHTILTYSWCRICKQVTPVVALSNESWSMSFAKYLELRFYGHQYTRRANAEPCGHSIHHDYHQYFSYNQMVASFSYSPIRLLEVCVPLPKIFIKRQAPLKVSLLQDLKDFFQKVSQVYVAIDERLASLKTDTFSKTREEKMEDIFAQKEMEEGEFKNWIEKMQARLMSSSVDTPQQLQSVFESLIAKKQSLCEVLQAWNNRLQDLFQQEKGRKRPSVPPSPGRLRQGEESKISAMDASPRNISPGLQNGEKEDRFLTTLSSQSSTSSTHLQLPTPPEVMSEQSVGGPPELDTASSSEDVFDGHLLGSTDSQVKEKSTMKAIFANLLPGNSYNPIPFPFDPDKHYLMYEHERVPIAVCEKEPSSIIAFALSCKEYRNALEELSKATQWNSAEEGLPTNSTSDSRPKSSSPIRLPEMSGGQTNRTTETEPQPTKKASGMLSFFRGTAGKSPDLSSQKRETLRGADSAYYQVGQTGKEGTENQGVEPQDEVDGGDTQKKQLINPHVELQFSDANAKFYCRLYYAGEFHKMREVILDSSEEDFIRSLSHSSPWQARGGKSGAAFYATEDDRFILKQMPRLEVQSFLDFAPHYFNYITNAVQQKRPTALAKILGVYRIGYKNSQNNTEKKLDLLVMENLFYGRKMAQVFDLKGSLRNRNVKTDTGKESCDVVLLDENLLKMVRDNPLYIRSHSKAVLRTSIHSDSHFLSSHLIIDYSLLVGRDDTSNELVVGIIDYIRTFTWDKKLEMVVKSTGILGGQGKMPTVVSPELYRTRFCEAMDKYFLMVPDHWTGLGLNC", "procedure,_shortened": "as §1"}, "ALK": {"target": "ALK (Homo sapiens, UniProt Q9UM73)", "procedure,_shortened": "as §1"}, "CSNK2A1": {"target": "CSNK2A1 (Homo sapiens, UniProt P68400)", "sequence (P68400 whole entry)": "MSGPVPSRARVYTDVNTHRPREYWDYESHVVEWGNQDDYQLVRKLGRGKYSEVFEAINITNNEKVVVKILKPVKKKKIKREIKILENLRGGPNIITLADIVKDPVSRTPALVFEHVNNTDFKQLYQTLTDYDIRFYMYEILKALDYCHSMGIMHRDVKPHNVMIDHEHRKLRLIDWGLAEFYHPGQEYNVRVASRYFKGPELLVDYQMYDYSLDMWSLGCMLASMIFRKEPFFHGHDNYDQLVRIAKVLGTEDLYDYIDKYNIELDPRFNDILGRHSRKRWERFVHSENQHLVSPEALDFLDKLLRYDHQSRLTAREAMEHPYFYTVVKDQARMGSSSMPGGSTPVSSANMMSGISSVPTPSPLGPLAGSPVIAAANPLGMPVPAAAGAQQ", "procedure,_shortened": "as §1"}, "CDKL3": {"target": "CDKL3 (Homo sapiens, UniProt Q8IVW4)", "procedure,_shortened": "as §1"}, "YANK3": {"target": "T9, YANK3 (Homo sapiens, UniProt Q86UX6)", "T9 construct": "gene STK32C", "procedure,_shortened": "as §1"}, "MEK1": {"target": "T10, MEK1 (Homo sapiens, UniProt Q02750)", "T10 construct": "gene MAP2K1", "procedure,_shortened": "as §1"}}, "data": [{"smiles": "CNS(=O)(=O)c1ccc(N(C)C)c(Nc2ncnc3cc(OC)c(OC)cc23)c1", "note": "[compound 7, 3-((6,7-dimethoxyquinazolin-4-yl)amino)-4-(dimethylamino)-N-methylbenzenesulfonamide]", "values": [{"measurement": "inhibition at 1 µM", "setting": "MINK", "result": 18, "unit": "%"}, {"measurement": "inhibition at 1 µM", "setting": "FLT3(N841I)", "result": 0, "unit": "%"}, {"measurement": "inhibition at 1 µM", "setting": "RIOK1", "result": 0, "unit": "%"}, {"measurement": "inhibition at 1 µM", "setting": "CAMK1B", "result": 46, "unit": "%"}, {"measurement": "inhibition at 1 µM", "setting": "PRKG2", "result": 14, "unit": "%"}, {"measurement": "inhibition at 1 µM", "setting": "LATS2", "result": 0, "unit": "%"}, {"measurement": "inhibition at 1 µM", "setting": "MST1", "result": 21, "unit": "%"}, {"measurement": "inhibition at 1 µM", "setting": "PRKCD", "result": 24, "unit": "%"}, {"measurement": "inhibition at 1 µM", "setting": "PIK3CA(Q546K)", "result": 36, "unit": "%"}, {"measurement": "inhibition at 1 µM", "setting": "LZK", "result": 23, "unit": "%"}, {"measurement": "inhibition at 1 µM", "setting": "CDK4-cyclinD1", "result": 20, "unit": "%"}, {"measurement": "inhibition at 1 µM", "setting": "[1]", "result": 1, "unit": "%"}, {"measurement": "inhibition at 1 µM", "setting": "VRK2", "result": 29, "unit": "%"}, {"measurement": "inhibition at 1 µM", "setting": "ALK(C1156Y)", "result": 0, "unit": "%"}, {"measurement": "inhibition at 1 µM", "setting": "ABL1-phosphorylated", "result": 26, "unit": "%"}, {"measurement": "inhibition at 1 µM", "setting": "BRSK2", "result": 27, "unit": "%"}, {"measurement": "inhibition at 1 µM", "setting": "CDK11", "result": 0, "unit": "%"}, {"measurement": "inhibition at 1 µM", "setting": "MARK3", "result": 0, "unit": "%"}, {"measurement": "inhibition at 1 µM", "setting": "PIKFYVE", "result": 7, "unit": "%"}, {"measurement": "inhibition at 1 µM", "setting": "ALK", "result": 10, "unit": "%"}, {"measurement": "inhibition at 1 µM", "setting": "CSNK2A1", "result": 0, "unit": "%"}, {"measurement": "inhibition at 1 µM", "setting": "CDKL3", "result": 0, "unit": "%"}, {"measurement": "inhibition at 1 µM", "setting": "YANK3", "result": 0, "unit": "%"}, {"measurement": "inhibition at 1 µM", "setting": "MEK1", "result": 35, "unit": "%"}]}]}
